Data as given in ChEMBL document CHEMBL4483862, “Open-source discovery of chemical leads for next-generation chemoprotective antimalarials” (2018).

System: Plasmodium berghei
Test: Luciferase/luciferin-expressing antifolate-resistant parasites were used to infect a culture of HepG2 cells that were pre-incubated with compounds. Infected hepatocytes emit light due to the luciferase reaction. Assay results are presented as the percent inhibition of light emission compared to control. […]
Format: functional
Settings: sporozoite; for IC90: read-out: LUCIFERASE INFECTION ASSAY - IC90

Row | Compound | IC90 [µM] | other results
1 | COc1ccc(Nc2nnc(SCc3cn4c(C)cccc4n3)s2)cc1 | 3.76 | IC50 (HEPG2TOX_HILL_SLOPE 1.62, HEPG2TOX_R_SQUARED 0.963, PBLUC_HILL_SLOPE 37.7, PBLUC_R_SQUARED 0.0792, read-out: LUCIFERASE INFECTION ASSAY - IC50): 3.55 µM
2 | O=c1c2ccccc2cnn1-c1nc2ccccc2[nH]1 | > 10 | IC50 (HEPG2TOX_HILL_SLOPE 1.61, HEPG2TOX_R_SQUARED 0.823, PBLUC_HILL_SLOPE 0.454, PBLUC_R_SQUARED 0.451, read-out: LUCIFERASE INFECTION ASSAY - IC50): 4.95 µM
3 | CC(C)c1ccc(NC(=O)c2csc(Cc3c(Cl)cccc3Cl)n2)cc1 | 8.08 | IC50 (HEPG2TOX_HILL_SLOPE 1.62, HEPG2TOX_R_SQUARED 0.849, PBLUC_HILL_SLOPE 1.9, PBLUC_R_SQUARED 0.639, read-out: LUCIFERASE INFECTION ASSAY - IC50): 2.55 µM
4 | CC(C)(C)c1cc(C(=O)/C(C#N)=N/Nc2cccc(Cl)c2)no1 | 9.64 | IC50 (HEPG2TOX_HILL_SLOPE 1.6, HEPG2TOX_R_SQUARED 0.978, PBLUC_HILL_SLOPE 25.6, PBLUC_R_SQUARED 0.306, read-out: LUCIFERASE INFECTION ASSAY - IC50): 8.85 µM
5 | OC1CCC(Nc2ccc3ncc(Br)n3n2)CC1 (configuration not stated) | > 10.6 | IC50 (HEPG2TOX_HILL_SLOPE 1.63, HEPG2TOX_R_SQUARED 0.931, read-out: LUCIFERASE INFECTION ASSAY - IC50): > 10.6 µM
6 | CC(C)(C)c1ccc(OS(=O)(=O)c2ccc(-c3csnn3)s2)cc1 | > 8.67 | IC50 (HEPG2TOX_HILL_SLOPE 1.63, HEPG2TOX_R_SQUARED 0.666, PBLUC_HILL_SLOPE 2.62, PBLUC_R_SQUARED 0.635, read-out: LUCIFERASE INFECTION ASSAY - IC50): 5.74 µM
7 | CC(C)n1ncc2cc(C(=O)Nc3nc(-c4cccnc4)cs3)cnc21 | > 10 | IC50 (HEPG2TOX_HILL_SLOPE 1.63, HEPG2TOX_R_SQUARED 0.918, read-out: LUCIFERASE INFECTION ASSAY - IC50): > 10 µM
8 | Cc1cc(C(=O)C[n+]2ccc(N(C)C)cc2)c(C)n1Cc1ccccc1 | 4.24 | IC50 (HEPG2TOX_HILL_SLOPE 1.63, HEPG2TOX_R_SQUARED 0.735, PBLUC_HILL_SLOPE 13.8, 4.61, PBLUC_R_SQUARED 0.572, 0.235, read-out: LUCIFERASE INFECTION ASSAY - IC50): 3.09 µM
9 | CC(=O)Nc1ccccc1OS(=O)(=O)c1ccc(N2CCCC2=O)cc1 | 1.38 | IC50 (HEPG2TOX_HILL_SLOPE 1.61, HEPG2TOX_R_SQUARED 0.866, PBLUC_HILL_SLOPE 5.07, PBLUC_R_SQUARED 0.799, read-out: LUCIFERASE INFECTION ASSAY - IC50): 0.894 µM
10 | Cn1c(-c2cc3c(s2)CCC(C(C)(C)C)C3)n[nH]c1=S (configuration not stated) | 7.62 | IC50 (HEPG2TOX_HILL_SLOPE 1.61, HEPG2TOX_R_SQUARED 0.989, PBLUC_HILL_SLOPE 2.28, PBLUC_R_SQUARED 0.71, read-out: LUCIFERASE INFECTION ASSAY - IC50): 2.9 µM
11 | Clc1ccccc1-c1nc2ccnc(NCc3ccccc3)c2[nH]1 | 4.04 | IC50 (HEPG2TOX_HILL_SLOPE 1.64, HEPG2TOX_R_SQUARED 0.835, PBLUC_HILL_SLOPE 9.56, PBLUC_R_SQUARED 0.749, read-out: LUCIFERASE INFECTION ASSAY - IC50): 3.21 µM
12 | OC(/C(=N/Nc1ncnc2ccccc12)c1ccccc1)c1ccccc1 (configuration not stated) | 6.04 | IC50 (HEPG2TOX_HILL_SLOPE 1.63, HEPG2TOX_R_SQUARED 0.814, PBLUC_HILL_SLOPE 71.4, PBLUC_R_SQUARED 0.509, read-out: LUCIFERASE INFECTION ASSAY - IC50): 5.86 µM
13 | O=C(NCCO)c1cccc(-c2ccc3ncc(-c4ccc5c(c4)OCO5)n3n2)c1 | 3.86 | IC50 (HEPG2TOX_HILL_SLOPE 1.62, HEPG2TOX_R_SQUARED 0.792, PBLUC_HILL_SLOPE 12.2, PBLUC_R_SQUARED 0.362, read-out: LUCIFERASE INFECTION ASSAY - IC50): 3.22 µM
14 | CN(C)CCNC(=O)c1ccc(-c2cn3c(-c4ccc5ncccc5c4)cnc3cn2)cc1 | > 7.56 | IC50 (HEPG2TOX_HILL_SLOPE 1.62, HEPG2TOX_R_SQUARED 0.706, PBLUC_HILL_SLOPE 13, PBLUC_R_SQUARED 0.311, read-out: LUCIFERASE INFECTION ASSAY - IC50): 6.52 µM
15 | O=[N+]([O-])c1ccc(C(O)CNc2ccccc2S(=O)(=O)C(F)(F)F)cc1 (configuration not stated) | 1.21 | IC50 (HEPG2TOX_HILL_SLOPE 1.62, HEPG2TOX_R_SQUARED 0.763, PBLUC_HILL_SLOPE 5.41, PBLUC_R_SQUARED 0.533, read-out: LUCIFERASE INFECTION ASSAY - IC50): 0.807 µM
16 | O=C(c1[nH]c2ccccc2c1-c1ccccc1)N1CCOCC1 | 8.74 | IC50 (HEPG2TOX_HILL_SLOPE 1.63, HEPG2TOX_R_SQUARED 0.942, PBLUC_HILL_SLOPE 2.32, PBLUC_R_SQUARED 0.78, read-out: LUCIFERASE INFECTION ASSAY - IC50): 3.39 µM

Row | Compound | IC90 [µM] | other results
17 | CCc1ccc(-c2nnc(SC(C)C(=O)NC3CCCCC3)[nH]2)cc1 (configuration not stated) | > 10 | IC50 (HEPG2TOX_HILL_SLOPE 1.62, HEPG2TOX_R_SQUARED 0.795, read-out: LUCIFERASE INFECTION ASSAY - IC50): > 10 µM
18 | Cc1c(-c2ccccc2)sc2[nH]c(CC(N)=O)nc(=O)c12 | 1.59 | IC50 (HEPG2TOX_HILL_SLOPE 1.61, HEPG2TOX_R_SQUARED 0.893, PBLUC_HILL_SLOPE 16.8, PBLUC_R_SQUARED 0.567, read-out: LUCIFERASE INFECTION ASSAY - IC50): 1.39 µM
19 | O=C(CN1CC=C(c2ccccc2)CC1)Nc1ccnn1C1CCCC1 | > 10 | IC50 (HEPG2TOX_HILL_SLOPE 1.62, HEPG2TOX_R_SQUARED 0.847, PBLUC_HILL_SLOPE 1.87, PBLUC_R_SQUARED 0.673, read-out: LUCIFERASE INFECTION ASSAY - IC50): 5.98 µM
20 | COc1cccc(-c2nc3ccnc(NCc4ccccc4)c3[nH]2)c1 | 7.99 | IC50 (HEPG2TOX_HILL_SLOPE 1.62, HEPG2TOX_R_SQUARED 0.805, PBLUC_HILL_SLOPE 1.55, PBLUC_R_SQUARED 0.567, read-out: LUCIFERASE INFECTION ASSAY - IC50): 1.93 µM
21 | CNc1ccc2ncc(-c3ccc(OC)nc3)n2n1 | 12.8 | IC50 (HEPG2TOX_HILL_SLOPE 1.61, HEPG2TOX_R_SQUARED 0.963, PBLUC_HILL_SLOPE 2.26, PBLUC_R_SQUARED 0.378, read-out: LUCIFERASE INFECTION ASSAY - IC50): 4.85 µM
22 | Cc1cc(C(=O)Nc2nc3cc(C(F)(F)F)ccc3n2Cc2ccco2)c2c(C)noc2n1 | 3.24 | IC50 (HEPG2TOX_HILL_SLOPE 1.6, HEPG2TOX_R_SQUARED 0.983, PBLUC_HILL_SLOPE 3.8, PBLUC_R_SQUARED 0.87, read-out: LUCIFERASE INFECTION ASSAY - IC50): 1.82 µM
23 | CCN1C(=Cc2cc(C)[n+](CCCN3CCOCC3)c(C)c2)Sc2ccccc21 | 5.67 | IC50 (HEPG2TOX_HILL_SLOPE 1.6, HEPG2TOX_R_SQUARED 0.978, PBLUC_HILL_SLOPE 2.92, PBLUC_R_SQUARED 0.557, read-out: LUCIFERASE INFECTION ASSAY - IC50): 2.67 µM
24 | Cc1cc(-c2cn3c(-c4ccc(CO)cc4)cnc3cn2)cc(C)c1O | 4.31 | IC50 (HEPG2TOX_HILL_SLOPE 1.62, HEPG2TOX_R_SQUARED 0.965, PBLUC_HILL_SLOPE 8.31, PBLUC_R_SQUARED 0.637, read-out: LUCIFERASE INFECTION ASSAY - IC50): 3.31 µM
25 | COC(=O)C1=C(C)N(c2cccc(C(F)(F)F)c2)C(=S)NC1c1ccc(O)c(OC)c1 (configuration not stated) | 1.57 | IC50 (HEPG2TOX_HILL_SLOPE 1.61, 1.73, HEPG2TOX_R_SQUARED 0.946, 0.571, PBLUC_HILL_SLOPE 8.66, 0.516, PBLUC_R_SQUARED 0.631, 0.614, read-out: LUCIFERASE INFECTION ASSAY - IC50): 0.906 µM
26 | N#Cc1ccnc(N2CCN(C(=O)c3cccc(-n4cccc4)c3)CC2)c1 | 2.2 | IC50 (HEPG2TOX_HILL_SLOPE 1.62, HEPG2TOX_R_SQUARED 0.96, PBLUC_HILL_SLOPE 2.46, PBLUC_R_SQUARED 0.842, read-out: LUCIFERASE INFECTION ASSAY - IC50): 0.901 µM
27 | Cc1ccc2nc(NC(=O)c3ccc(F)cc3F)c(C(=O)NC3CCCC3)n2c1 | 2.97 | IC50 (HEPG2TOX_HILL_SLOPE 1.63, HEPG2TOX_R_SQUARED 0.945, PBLUC_HILL_SLOPE 15.6, PBLUC_R_SQUARED 0.398, read-out: LUCIFERASE INFECTION ASSAY - IC50): 2.58 µM
28 | CCc1c(C)sc2nc(SCC(=O)c3cc(C)n(-c4ccc5c(c4)OCO5)c3C)n(CC)c(=O)c12 | > 10 | IC50 (HEPG2TOX_HILL_SLOPE 1.63, HEPG2TOX_R_SQUARED 0.963, PBLUC_HILL_SLOPE 1.91, PBLUC_R_SQUARED 0.412, read-out: LUCIFERASE INFECTION ASSAY - IC50): 3.47 µM
29 | Oc1cccc(-c2cnc3cnc(-c4ccc(Cl)cc4Cl)cn23)c1 | 2.14 | IC50 (HEPG2TOX_HILL_SLOPE 1.62, HEPG2TOX_R_SQUARED 0.949, PBLUC_HILL_SLOPE 1.81, PBLUC_R_SQUARED 0.693, read-out: LUCIFERASE INFECTION ASSAY - IC50): 0.634 µM
30 | O=C1/C(=N\O)c2ccccc2N1Cc1cc(C(F)(F)F)cc(C(F)(F)F)c1 | 2.62 | IC50 (HEPG2TOX_HILL_SLOPE 1.63, HEPG2TOX_R_SQUARED 0.96, PBLUC_HILL_SLOPE 1.81, PBLUC_R_SQUARED 0.672, read-out: LUCIFERASE INFECTION ASSAY - IC50): 0.78 µM
31 | NS(=O)(=O)c1ccc(CNc2ccc3ncc(-c4ccc(Cl)cc4)n3n2)cc1 | 1.19 | IC50 (HEPG2TOX_HILL_SLOPE 1.64, HEPG2TOX_R_SQUARED 0.894, PBLUC_HILL_SLOPE 9.33, PBLUC_R_SQUARED 0.776, read-out: LUCIFERASE INFECTION ASSAY - IC50): 0.942 µM
